Laboratory results published in patent US8822515B2, “Heterocyclic benzoxazole compositions as inhibitors of hepatitis C virus” (University of Maryland, Baltimore County, priority 2009, dated 2014).
pEC50, pIC50: −log10 of the molar value. “Also recorded” adds a separate entry of the source. Like-named read-outs stand apart in the source and are kept apart here.

Columns and labels:
HCV NTPase/helicase [1] = molecular target: T1, HCV NTPase/helicase (Hepatitis C virus genotype 1a, UniProt P27958); test: NTPase/Helicase assay, HCV helicase, DNA substrate; format: biochemical; conditions: for inhibition of NTPase/helicase of HCV (in words) / IC50 / pIC50: DNA substrate; for IC50: read-out: HCV Helicase (IC50) DNA (converted); for pIC50: HCV Helicase (IC50) DNA
T1 sequence (P27958 1027-1657): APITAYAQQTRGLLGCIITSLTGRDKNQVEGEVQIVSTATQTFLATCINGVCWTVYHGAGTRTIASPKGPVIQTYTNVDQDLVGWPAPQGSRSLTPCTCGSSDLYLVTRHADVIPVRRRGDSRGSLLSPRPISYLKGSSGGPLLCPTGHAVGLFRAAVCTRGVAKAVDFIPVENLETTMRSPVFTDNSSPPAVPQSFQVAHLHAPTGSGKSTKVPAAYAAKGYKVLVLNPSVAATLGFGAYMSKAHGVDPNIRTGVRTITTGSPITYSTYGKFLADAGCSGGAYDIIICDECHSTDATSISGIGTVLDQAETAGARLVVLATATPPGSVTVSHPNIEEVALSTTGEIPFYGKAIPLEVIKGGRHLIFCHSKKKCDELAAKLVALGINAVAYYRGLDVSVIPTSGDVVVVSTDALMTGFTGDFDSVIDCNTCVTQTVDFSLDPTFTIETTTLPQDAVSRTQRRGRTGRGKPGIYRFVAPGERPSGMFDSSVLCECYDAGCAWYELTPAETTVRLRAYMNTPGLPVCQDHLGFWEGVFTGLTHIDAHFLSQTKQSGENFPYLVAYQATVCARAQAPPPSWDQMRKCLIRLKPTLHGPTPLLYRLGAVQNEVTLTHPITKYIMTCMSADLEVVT
Description: Inhibitory activity of HCV was measured using a DNA substrate.
NTPase/Helicase activity determined by a previously described method. Helicase activity was determined as a function of increasing concentrations of the compounds in the presence of ATP adjusted to 105 μM, 235 μM, for HCV, JEV, and DENV NTPase/Helicase, respectively and […] of DNA substrate (concentration of nucleotide base). The substrate and released strand were separated in TBE polyacrylamide gel and visualized by exposition of dried gel onto X-ray film for 20 h. The part of the gels corresponding to the released strand were excised, and the ^32P radioactivity was quantified.

HCV NTPase/helicase [2] = molecular target: T1, HCV NTPase/helicase; test: NTPase/Helicase assay, HCV helicase, RNA substrate; format: biochemical
Description: NTPase/Helicase activity determined by a previously described method. […] The substrate and released strand were separated in TBE polyacrylamide gel and visualized by exposition of dried gel onto X-ray film for 20 h. The part of the gels corresponding to the released strand were excised, and the ^32P radioactivity was quantified.

HCV ATPase = HCV ATPase (Hepatitis C virus genotype 1a, UniProt P27958); test: ATPase analysis of HCV NTPase/helicase; format: biochemical
Chain of HCV ATPase (P27958 1027-1657): as above

[3] = system: HCV replicon in Huh7 ET (luc-ubi-neo/ET) cell line; test: HCV replicon assay (luciferase based), antiviral activity; format: cell-based, Hepatitis C Virus; set-up: SI50: unit not given here; conditions: for pEC50: Hepatitis C virus, Huh7 ET; for activity against HCV in replicon assay (in words): whole cells; for SI50: selectivity index, luciferase based replicon assay
Text: (§1) To determine if the compounds are active in whole cells, they were screened using an HCV replicon assay. […] Compound 2b also has similar selectivity towards HCV as human interferon alpha-2b (rIFNa-2b), the positive control.
In the replicon assays a Huh7 ET (luc-ubi-neo/ET) cell line is used. This particular construct contain the 5′NTR (IRES) of HCV, producing a firefly luciferase (luc), ubiquitin (ubiq) and neomycin phosphotranferase (neo) fusion protein. This modification makes the cell line more robust and provides the additional stability needed for antiviral screening. […]

[4] = system: Huh7 ET (luc-ubi-neo/ET) cell line; test: HCV replicon assay (luciferase based), cytotoxicity; format: cell-based; conditions: cytotoxicity in luciferase based replicon assay, high test conc 20 μM (rIFNa-2b 2)
Text: as §1
In the replicon assays a Huh7 ET (luc-ubi-neo/ET) cell line is used. This particular construct contain the 5′NTR (IRES) of HCV, producing a firefly luciferase (luc), ubiquitin (ubiq) and neomycin phosphotranferase (neo) fusion protein. This modification makes the cell line more robust and provides the additional stability needed for antiviral screening. The effects of the drug were examined in triplicate at a single high-test concentration of 20 μM on HCV RNA-derived LUC activity and cytotoxicity.

HCV = test: RNA based confirmatory assay, antiviral activity; format: cell-based, Hepatitis C Virus; set-up: SI50: unit not given here; conditions: for pEC50: Hepatitis C virus; for SI50: selectivity index, RNA based confirmatory assay
[5] = RNA based confirmatory assay, cytotoxicity; format: cell-based; conditions: cytotoxicity in RNA based confirmatory assay; high test conc 20 μM (rIFNa-2b 2)
integrase = test: Integrase test; format: biochemical
[6] = read-out: HCV Helicase (IC50) RNA
[7] = in brackets, molar value in brackets
[8] = HCV Helicase (IC50) RNA, in brackets, molar value in brackets

Structure (SMILES)	activity in HCV NTPase/helicase assay (in words) (HCV NTPase/helicase [1])	inhibition of NTPase/helicase of HCV (in words) (HCV NTPase/helicase [1])	IC50 (HCV NTPase/helicase [1]) [µM]	pIC50 (HCV NTPase/helicase [2]; [6])	pIC50 (HCV ATPase; read-out: ATPase (IC50))	pEC50 [3]	activity against HCV in replicon assay (in words) [3]	pIC50 [4]	pEC50 (HCV)	pIC50 [5]	pIC50 (HCV NTPase/helicase [1])	pIC50 (HCV NTPase/helicase [1]; [7])	inhibition of HCV helicase with RNA substrate (in words) (HCV NTPase/helicase [2])	pIC50 (HCV NTPase/helicase [2]; HCV Helicase (IC50) RNA)	pIC50 (HCV NTPase/helicase [2]; [8])	pIC50 (HCV ATPase)	SI50 [3]	activity against integrase (integrase)	melting point [°C]	SI50 (HCV)
COC(=O)c1cccc2oc(-c3cccc4oc(-c5ccccc5O)nc34)nc12 [Compound 1, UK-1]	inactive; also recorded: did not show any activity	inhibit	378	< 2.89	< 2.89	6.68	still active against HCV	4.94	6.14	< 4.70	–	–	–	–	–	–	–	–	–	–
COC(=O)c1cccc2oc(-c3ccc4c(OCc5ccccc5)cccc4c3O)nc12 [Compound 2a, 2-(5-Benzyloxy-1-hydroxy-naphthalene-2-yl)-benzoxazole-4-carboxylic Acid Methyl Ester]	–	inhibit	–	–	–	5.95	–	< 4.70	–	–	5.42	5.42	inhibitory	4.69	4.70	< 2.93	>17.7	inactive	183.5 to 185	–
COC(=O)c1cccc2oc(-c3ccc4ccc(OCc5ccccc5)cc4c3O)nc12 [Compound 2b, 2-(7-benzyloxy-1-hydroxy-napthalen-2-yl)-benzoxazole-4 Carboxylic Acid Methyl Ester]	–	inhibit	–	–	–	6.33	–	< 4.70	–	–	5.59	5.59	inhibitory	4.70	4.70	< 2.93	>42.6	inactive	–	–
COC(=O)c1cccc2oc(-c3ccc4ccccc4c3O)nc12 [Compound 6, 2-(1-Hydroxy-naphthalen-2-yl)benzoxazole-4-carboxylic Acid Methyl Ester]	–	inhibit	–	–	–	6.68	–	5.79	5.88	5.77	3.27	3.27	inhibitory	3.23	3.23	< 2.81	7.67	inactive	–	>1.27
COC(=O)c1cccc2oc(-c3ccccc3O)nc12 [Compound 8]	inactive; also recorded: did not show any activity	–	> 1860	< 2.73	< 2.73	6.49	still active against HCV	5.28	6.24	5.29	–	–	–	–	–	–	16.2	–	–	>8.93
O=C(O)c1cccc2oc(-c3ccccc3O)nc12 [Compound 9]	inactive; also recorded: did not show any activity	–	> 1960	< 2.71	< 2.71	6.68	still active against HCV	5.45	–	–	–	–	–	–	–	–	16.7	–	–	–
CNC(=O)c1cccc2oc(-c3ccccc3O)nc12 [Compound 10]	inactive; also recorded: did not show any activity	–	> 1860	< 2.73	< 2.73	5.85	still active against HCV	5.20	–	–	–	–	–	–	–	–	4.5	–	–	–
